Columns and labels:
[1] = system: Human Cardiac Electrophysiology; assay: Electrophysiological effects of two intravenous doses in patients (Example 1); type: in vivo; design: AH interval / HV interval / VERP / AERP / QT / QRS / Atrial MAP50: unit not given here; details: for Diastolic BP / HEART RATE / Systolic BP: T = 45 min
Protocol: This example provides the results of a study conducted to determine the electrophysiological effects of two intravenous doses of COMPOUND A. Patients in the study required electrophysiologic studies (with or without radiofrequency ablation) and were from 18 to 75 years of age. Following the study and ablation (if applicable), the atrial MAP catheter was positioned and the following electrophysiological measures were performed: • 1. Intervals reflecting conduction: […] Intervals reflecting repolarization/refractoriness: • a). […] Heart rate, brachial (cuff) blood pressure. Drug Administration: • 1. […] Twenty five minutes after the start of intravenous drug infusion (15 minutes after the end of loading and start of maintenance infusion), all electrophysiological measures were repeated.

[2] = COMPOUND A plasma concentrations in acute AF study (Example 2); type: in vivo, human
Protocol: A Holter rhythm strip continuously monitored ECG, vital signs (blood pressure and heart rate, BP and HR, respectively) and O2 saturation were recorded every 2 min from the start of infusion to 5 min after, as well as at 15, 30, 60, 120, 240, 360, and 480 min and at discharge and one-week follow-up. Twelve-lead ECGs were obtained before dosing and every minute during infusion to 5 min after, as well as at 15, 30, 60, 120, 240, 360, and 480 min and at discharge, 24 h and one-week follow-up, and at the time of arrhythmia termination or significant rhythm changes. Venous blood samples were drawn for COMPOUND A plasma concentrations at 0, 15, 30, 120, 240, 480 min discharge and at AF termination or significant adverse events.
COMPOUND A doses were infused over 10 min as indicated in the text. Initially a 2 mg/kg infusion was given and if required an additional 3 mg/kg was infused 30 min later in the RSD-2 group. Time is shown relative to the end of the first infusion (T1).

[3] = system: atrial fibrillation (AF duration 3 hr-7 days; 8-45 days); assay: Effect of age, gender and prior rate control medications on conversion of AF to SR (Example 4); type: in vivo, human; details: for Number of Pts Converted to Sinus Rhythm / Pts (%) Converted to Sinus Rhythm: AF Duration 3 hr-7 days
Protocol: Patients (pts) were block randomized in a double-blind, controlled study in a 2:1 ratio to receive COMPOUND A or placebo, stratified by AF duration (3 hr-7 days; 8-45 days). COMPOUND A (3 mg/kg), or similar appearing placebo, were infused over 10-min, followed by a second infusion if AF was not terminated (2 mg/kg or placebo). The proportion of pts with AF duration 3 hr-7 days who had treatment-induced conversion to SR within 90 min was the primary endpoint. Logistic regression was used to examine the effect of age (<65 vs ≧65), gender, and a prior use of rate control medications (beta blockers, calcium antagonists, digoxin).

[4] = patients that received only the 2 mg/kg infusion
[5] = 30 days following drug administration

COc1ccc(CCO[C@@H]2CCCC[C@H]2N2CC[C@@H](O)C2)cc1OC.Cl [COMPOUND A, (1R,2R)-2-[(3R)-hydroxypyrrolidinyl]-1-(3,4-dimethoxyphenethoxy)cyclohexane monohydrochloride]
AERP 400 Ave Δ ([1]; Dose Level 1): 3.3 ± 5.4%
AERP 400 Ave Δ (Change from Baseline) ([1]; Dose Level 1): 5.0 ± 9.0 ms
SNRT (A1 400) ([1]; Dose Level 1): 1114.4 ± 227.4 ms
SNRT (A1 600) ([1]; Dose Level 1): 1157.8 ± 238.3 ms
Wenckebach Cycle Length ([1]; Dose Level 1): 388.1 ± 94.4 ms
Diastolic BP ([1]; Dose Level 1, 2 mg/kg): 84 ± 12 mm Hg
HEART RATE ([1]; Dose Level 1, 2 mg/kg): 78 ± 11 bpm
Systolic BP ([1]; Dose Level 1, 2 mg/kg): 135 ± 15 mm Hg
AERP ([1]; Dose Level 1, 300 msec): 180.5 ± 15.5
AERP ([1]; Dose Level 1, 400 msec): 195.0 ± 23.8
VERP ([1]; Dose Level 1, 400 msec): 226.7 ± 16.4
AH interval ([1]; Dose Level 1, 400 msec pacing): 134.2 ± 69.2
HV interval ([1]; Dose Level 1, 400 msec pacing): 52.5 ± 13.6
PA interval ([1]; Dose Level 1, 400 msec pacing): 61.8 ± 30.2
PR interval ([1]; Dose Level 1, 400 msec pacing): 239.2 ± 76.7
AERP ([1]; Dose Level 1, 600 msec): 219.5 ± 32.2
VERP ([1]; Dose Level 1, 600 msec): 247.8 ± 22.0
AH interval ([1]; Dose Level 1, 600 msec pacing): 113.8 ± 29.9
HV interval ([1]; Dose Level 1, 600 msec pacing): 50.1 ± 12.6
PA interval ([1]; Dose Level 1, 600 msec pacing): 64.0 ± 22.4
PR interval ([1]; Dose Level 1, 600 msec pacing): 227.7 ± 45.3
Atrial MAP50 ([1]; Dose Level 1, A1 200 msec): 116.4 ± 15.4
Atrial MAP50 ([1]; Dose Level 1, A1 250 msec): 134.2 ± 18.4
Atrial MAP50 ([1]; Dose Level 1, A1 300 msec): 139.5 ± 20.4
Atrial MAP50 ([1]; Dose Level 1, A1 400 msec): 152.6 ± 19.7
QRS ([1]; Dose Level 1, A1 400 msec): 87.0 ± 6.6
QT ([1]; Dose Level 1, A1 400 msec): 325.4 ± 9.0
Atrial MAP50 ([1]; Dose Level 1, A1 600 msec): 172.8 ± 31.9
QRS ([1]; Dose Level 1, A1 600 msec): 89 ± 9
QT ([1]; Dose Level 1, A1 600 msec): 363 ± 27
QRS Ave Δ ([1]; Dose Level 1, V1 400): 7.6 ± 11.5%
QRS ([1]; Dose Level 1, V1 400 msec): 160.5 ± 23.0
QT ([1]; Dose Level 1, V1 400 msec): 381.5 ± 25.2
QRS ([1]; Dose Level 1, V1 600 msec): 169 ± 24
QT ([1]; Dose Level 1, V1 600 msec): 433 ± 30
AERP 400 Ave Δ ([1]; Dose Level 2): 14.7 ± 11.5 %
AERP 400 Ave Δ (Change from Baseline) ([1]; Dose Level 2): 24.4 ± 17.8 ms
AERP 600 Ave Δ ([1]; Dose Level 2): 16.9 ± 9.0 %
SNRT (A1 400) ([1]; Dose Level 2): 1047.1 ± 212.2 ms
SNRT (A1 600) ([1]; Dose Level 2): 1033.3 ± 247.8 ms
Wenckebach Cycle Length ([1]; Dose Level 2): 366.9 ± 53.7 ms
Diastolic BP ([1]; Dose Level 2, 4 mg/kg): 75 ± 9 mm Hg
HEART RATE ([1]; Dose Level 2, 4 mg/kg): 91 ± 19 bpm
Systolic BP ([1]; Dose Level 2, 4 mg/kg): 126 ± 15 mm Hg
AERP ([1]; Dose Level 2, 300 msec): 192.8 ± 20.2
AERP ([1]; Dose Level 2, 400 msec): 206.7 ± 25.6
VERP ([1]; Dose Level 2, 400 msec): 227.5 ± 16.3
AH interval ([1]; Dose Level 2, 400 msec pacing): 147.0 ± 67.6
HV interval ([1]; Dose Level 2, 400 msec pacing): 50.2 ± 8.4
PA interval ([1]; Dose Level 2, 400 msec pacing): 75.8 ± 24.4
PR interval ([1]; Dose Level 2, 400 msec pacing): 261.2 ± 60.4
AERP ([1]; Dose Level 2, 600 msec): 227.9 ± 22.5
VERP ([1]; Dose Level 2, 600 msec): 261.7 ± 16.3
AH interval ([1]; Dose Level 2, 600 msec pacing): 101.7 ± 21.5
HV interval ([1]; Dose Level 2, 600 msec pacing): 50.9 ± 7.0
PA interval ([1]; Dose Level 2, 600 msec pacing): 69.1 ± 21.5
PR interval ([1]; Dose Level 2, 600 msec pacing): 224.6 ± 18.8
Atrial MAP50 ([1]; Dose Level 2, A1 200 msec): 124.0
Atrial MAP50 ([1]; Dose Level 2, A1 250 msec): 130.0 ± 14.5
Atrial MAP50 ([1]; Dose Level 2, A1 300 msec): 135.6 ± 20.4
Atrial MAP50 ([1]; Dose Level 2, A1 400 msec): 143.7 ± 25.2
QRS ([1]; Dose Level 2, A1 400 msec): 86.4 ± 9.0
QT ([1]; Dose Level 2, A1 400 msec): 336.7 ± 27.8
Atrial MAP50 ([1]; Dose Level 2, A1 600 msec): 165.5 ± 33.3
QRS ([1]; Dose Level 2, A1 600 msec): 89 ± 8
QT ([1]; Dose Level 2, A1 600 msec): 364 ± 20
QRS ([1]; Dose Level 2, V1 400 msec): 157.3 ± 22.5
QT ([1]; Dose Level 2, V1 400 msec): 376.3 ± 32.5
QRS ([1]; Dose Level 2, V1 600 msec): 157 ± 15
QT ([1]; Dose Level 2, V1 600 msec): 412 ± 30
effect on ventricular refractoriness, repolarization or conduction ([1]; at the doses studied): no significant effect
conduction effect in the AV node, His Purkinje, and ventricular tissue ([1]; conclusion of study): small but significant conduction slowing effect
effect on atrial refractory periods ([1]; conclusion of study): dose-dependently prolongs
patients with a metallic taste in mouth ([1]; n=19, both dose levels): three
patients with a transient tingling sensation ([1]; n=19, both dose levels): four
patients with numbness in tongue ([1]; n=19, both dose levels): one
patients with transient hypotension ([1]; n=19, both dose levels): one
Plasma drug levels at 24 h post-infusion (below the limit of detection) ([2]; RSD-1, majority of patients): < 5 ng/mL
mean plasma levels at 24 h ([2]; RSD-2 group): 17 ng/mL
Mean peak plasma levels ([2]; patients that received both 0.5 and 1.0 mg/kg): 1.9 µg/mL
Mean peak plasma levels ([2]; patients that received both the 2.0 and 3.0 mg/kg infusions): 5.8 µg/mL
mean peak plasma levels at the end of infusion [2, 4]: 2.6 µg/mL
mean terminal elimination half life [2, 4]: 3.1 h
median plasma level at the time of AF conversion [2, 4]: 1.3 µg/mL
median time to conversion ([3]; 3 hr-7 day group (n=75)): 11 min
pts with serious adverse events (%) [3, 5]: 13%
pts with serious adverse events (number) [3, 5]: 29
Number of Pts Converted to Sinus Rhythm ([3]; Men): 53
Pts (%) Converted to Sinus Rhythm ([3]; Men): 52%
Number of Pts Converted to Sinus Rhythm ([3]; No Prior Rate Control Drugs): 19
Pts (%) Converted to Sinus Rhythm ([3]; No Prior Rate Control Drugs): 53%
Number of Pts Converted to Sinus Rhythm ([3]; Prior Rate Control Drugs): 56
Pts (%) Converted to Sinus Rhythm ([3]; Prior Rate Control Drugs): 51%
Number of Pts Converted to Sinus Rhythm ([3]; Women): 22
Pts (%) Converted to Sinus Rhythm ([3]; Women): 51%
Number of Pts Converted to Sinus Rhythm ([3]; age <65): 49
Pts (%) Converted to Sinus Rhythm ([3]; age <65): 56%
Number of Pts Converted to Sinus Rhythm ([3]; age ≧65): 26
Pts (%) Converted to Sinus Rhythm ([3]; age ≧65): 46%
drug-related Torsades de Pointes ([3]; in vivo): No cases
patients converted to SR ([3]; primary end-point group, AF 3 hr-7 days, 3 mg/kg then 2 mg/kg, within 90 min): 52%

— patent US8263638B2, “Dosing regimens for ion channel modulating compounds” (priority 2004, dated 2012)
